Test results from patent US20230404998A1, “Combination Therapies for Treating Cancer” (ASCENTAGE PHARMA (SUZHOU) CO., LTD., priority 2020, published 2023).

Tests used:
Details in all cases: read-out: Anti-proliferation (IC50)
[1] = target: BaF3(Bcr-Abl) T315I-255K (Homo sapiens, UniProt P00519, E255K/T315I, cells depend on it)
Protocol: (§1) The anti-proliferative effect was determined by a water-soluble tetrazolium (WST)-based assay using Cell Counting Kit-8 (CCK-8, #D3100L4057, Shanghai life ilab bio technology co., LTD, China). Cells were seeded in 96-well plates and treated with different concentrations of test articles. […] Each treatment was tested in triplicates. The plate was then cultured at 37° C. with 5% CO2 for 72 hours. At the end of treatments, 20 μl/well of CCK-8 reagent was directly added to each wells. The plate was then incubated at 37° C. with 5% CO2 for 2-4 h. The OD value was detected at 450 nm on a microplate reader (SpectraMax I3X, Molecular Devices, US). IC50 values were calculated with Graphpad Prism 7.0 software using nonlinear regression (curve fitting) type data analysis. For combination effect assay, the cells viability was normalized using the mean OD value of triplicated wells for the single agent control.

[2] = target: BaF3(Bcr-Abl) T315I-E255V (Homo sapiens, UniProt P00519, E255V/T315I, cells depend on it)
Protocol: as §1

[3] = target: BaF3(Bcr-Abl) F311I (Homo sapiens, UniProt P00519, F311I, cells depend on it)
Protocol: as §1

[4] = target: BaF3(Bcr-Abl) M244V (Homo sapiens, UniProt P00519, M244V, cells depend on it)
Protocol: as §1

[5] = target: BaF3(Bcr-Abl) E255K (Homo sapiens, UniProt P00519, E255K, cells depend on it)
Protocol: as §1

[6] = target: BaF3(Bcr-Abl) V299L (Homo sapiens, UniProt P00519, V299L, cells depend on it)
Protocol: as §1

[7] = target: BaF3(Bcr-Abl) T315I-M351T (Homo sapiens, UniProt P00519, T315I/M351T, cells depend on it)
Protocol: as §1

[8] = target: BaF3(Bcr-Abl) T315M (Homo sapiens, UniProt P00519, T315M, cells depend on it)
Protocol: as §1

[9] = target: BaF3(Bcr-Abl) Y253H-E255V (Homo sapiens, UniProt P00519, Y253H/E255V, cells depend on it)
Protocol: as §1

[10] = target: BaF3(Bcr-Abl) T315I-G250E (Homo sapiens, UniProt P00519, G250E/T315I, cells depend on it)
Protocol: as §1

[11] = target: BaF3(Bcr-Abl) Y253H-F359V (Homo sapiens, UniProt P00519, Y253H/F359V, cells depend on it)
Protocol: as §1

[12] = target: BaF3(Bcr-Abl) T315I-F317L (Homo sapiens, UniProt P00519, T315I/F317L, cells depend on it)
Protocol: as §1

[13] = target: BaF3(Bcr-Abl) T315I-E453K (Homo sapiens, UniProt P00519, T315I/E453K, cells depend on it)
Protocol: as §1

[14] = target: BaF3(Bcr-Abl) M351T (Homo sapiens, UniProt P00519, M351T, cells depend on it)
Protocol: as §1

[15] = target: BaF3(Bcr-Abl) F317L-F359V (Homo sapiens, UniProt P00519, F317L/F359V, cells depend on it)
Protocol: as §1

[16] = target: BaF3(Bcr-Abl) E453K (Homo sapiens, UniProt P00519, E453K, cells depend on it)
Protocol: as §1

[17] = target: BaF3(Bcr-Abl) Wild-type (Homo sapiens, UniProt P00519)
Protocol: as §1

[18] = target: BaF3(Bcr-Abl) E255V (Homo sapiens, UniProt P00519, E255V, cells depend on it)
Protocol: as §1

[19] = target: BaF3(Bcr-Abl) T315I-F359V (Homo sapiens, UniProt P00519, T315I/F359V, cells depend on it)
Protocol: as §1

[20] = target: BaF3(Bcr-Abl) T35I-F311I (Homo sapiens, UniProt P00519, F311I/T315I, cells depend on it)
Protocol: as §1

[21] = target: BaF3(Bcr-Abl) 7253H (Homo sapiens, UniProt P00519, Y253H, cells depend on it)
Protocol: as §1

[22] = target: BaF3(Bcr-Abl) F317L (Homo sapiens, UniProt P00519, F317L, cells depend on it)
Protocol: as §1

[23] = target: BaF3(Bcr-Abl) V299L-F39V (Homo sapiens, UniProt P00519, V299L/F359V, cells depend on it)
Protocol: as §1

[24] = target: BaF3(Bcr-Abl) E459L (Homo sapiens, UniProt P00519, cells depend on it, form not given)
Protocol: as §1

[25] = target: BaF3(Bcr-Abl) T316I-M244V (Homo sapiens, UniProt P00519, M244V/T315I, cells depend on it)
Protocol: as §1

[26] = target: BaF3(Bcr-Abl) T3151 (Homo sapiens, UniProt P00519, T315I, cells depend on it)
Protocol: as §1

## Cc1ccc(C(=O)Nc2ccc(CN3CCN(C)CC3)c(C(F)(F)F)c2)cc1C#Cc1cnc2[nH]ncc2c1 [HQP1351, 3-(2-(1H-pyrazolo[3,4-b]pyridin-5-yl)ethynyl)-4-methyl-N-(4-((4-methylpiperazin-1-yl)methyl)-3-(trifluoromethyl)phenyl)-benzamide]
[1]
  GI50: 40 ± 5 nM
[2]
  GI50: 26 ± 11 nM
[3]
  GI50: 23 ± 13 nM
[4]
  GI50: 41 ± 8 nM
[5]
  GI50: 22 ± 13 nM
[6]
  GI50: 8 ± 4 nM
[7]
  GI50: 67 ± 44 nM
[8]
  GI50: 217 ± 131 nM
[9]
  GI50: 122 nM
[10]
  GI50: 33 ± 2 nM
[11]
  GI50: 311 ± 35 nM
[12]
  GI50: 117 ± 23 nM
[13]
  GI50: 61 ± 27 nM
[14]
  GI50: 9 ± 1 nM
[15]
  GI50: 25 ± 13 nM
[16]
  GI50: 3 nM
[17]
  GI50: 6 nM
[18]
  GI50: 27 ± 11 nM
[19]
  GI50: 20 ± 10 nM
[20]
  GI50: 78 ± 46 nM
[21]
  GI50: 7 ± 1 nM
[22]
  GI50: 8 ± 3 nM
[23]
  GI50: 32 ± 4 nM
[24]
  GI50: 106 nM
[25]
  GI50: 76 ± 53 nM
[26]
  GI50: 24 ± 10 nM
